Results reported in PubChem BioAssay AID1259411 (Chemical Carcinogenesis Research Information System (CCRIS), 2018).
Activity calls are given as the source filed them. No rule for the calls is given here.

Tested on: rodent carcinogenicity bioassays, tumor incidence
Assay: CCRIS carcinogenicity studies
In short: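 Archive of carcinogenicity, mutagenicity, tumor promotion and tumor inhibition results drawn from journals, NCI reports and other sources, expert-reviewed; covers 1985-2011 and is no longer updated.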

## NC(=O)N(CCCO)N=O
Species: RAT, Strain/Sex: F344/FEMALE, Route: GAVAGE, Dose: 0, 8 MG/ML (TOTAL DOSE 0; 0.9 MMOL) IN 2 ML ETHYL ACETATE AND CORN OIL (1:2) 2/WK FOR 40 WK (STUDY DURATION: LIFETIME), Dose: 0, 8 MG/ML (TOTAL DOSE 0; 0.9 MMOL) IN 2 ML ETHYL ACETATE AND CORN OIL (1:2) 2/WK FOR 40 WK (STUDY DURATION: LIFETIME), Tumor Site: Type of Lesion: THYROID: C-CELL TUMOR
  carcinogen call: active; positive
Species: RAT, Strain/Sex: F344/FEMALE, Route: GAVAGE, Dose: 0, 8 MG/ML IN 0.2 ML ETHYL ACETATE AND CORN OIL 2/WK FOR 40 WK (STUDY DURATION: LIFESPAN), Tumor Site: Type of Lesion: THYROID: C-CELL TUMOR, UTERUS: TUMOR
  carcinogen call: active; positive
Species: RAT, Strain/Sex: F344/FEMALE, Route: GAVAGE, Dose: 0, 16 MG/ML (TOTAL DOSE 0; 1.3 MMOL) IN 2 ML ETHYL ACETATE AND CORN OIL (1:2) 2/WK FOR 30 WK (STUDY DURATION: LIFETIME), Dose: 0, 16 MG/ML (TOTAL DOSE 0; 1.3 MMOL) IN 2 ML ETHYL ACETATE AND CORN OIL (1:2) 2/WK FOR 30 WK (STUDY DURATION: LIFETIME)
  carcinogen call: inactive; negative
Species: RAT, Strain/Sex: F344/FEMALE, Route: GAVAGE, Dose: 0, 16 MG/ML IN 0.2 ML ETHYL ACETATE AND CORN OIL 2/WK FOR 30 WK (STUDY DURATION: LIFESPAN), Tumor Site: Type of Lesion: LIVER: TUMOR, FORESTOMACH: TUMOR, THYROID: C-CELL TUMOR, UTERUS: TUMOR, DUODENUM: TUMOR, Tumor Site: Type of Lesion: LIVER: TUMOR, FORESTOMACH: TUMOR, THYROID: C-CELL TUMOR, UTERUS: TUMOR, DUODENUM: TUMOR
  carcinogen call: active; positive
Species: RAT, Strain/Sex: F344/MALE, Route: GAVAGE, Dose: 0, 8 MG/ML (TOTAL DOSE 0; 0.9 MMOL) IN 2 ML ETHYL ACETATE AND CORN OIL (1:2) 2/WK FOR 40 WK (STUDY DURATION: LIFETIME), Dose: 0, 8 MG/ML (TOTAL DOSE 0; 0.9 MMOL) IN 2 ML ETHYL ACETATE AND CORN OIL (1:2) 2/WK FOR 40 WK (STUDY DURATION: LIFETIME)
  carcinogen call: inactive; negative
Species: RAT, Strain/Sex: F344/MALE, Route: GAVAGE, Dose: 0, 8 MG/ML IN 0.2 ML ETHYL ACETATE AND CORN OIL 2/WK FOR 40 WK (STUDY DURATION: LIFESPAN), Tumor Site: Type of Lesion: FORESTOMACH: TUMOR
  carcinogen call: active; positive
Species: RAT, Strain/Sex: F344/MALE, Route: GAVAGE, Dose: 0, 16 MG/ML (TOTAL DOSE 0; 1.3 MMOL) IN 2 ML ETHYL ACETATE AND CORN OIL (1:2) 2/WK FOR 30 WK (STUDY DURATION: LIFETIME), Dose: 0, 16 MG/ML (TOTAL DOSE 0; 1.3 MMOL) IN 2 ML ETHYL ACETATE AND CORN OIL (1:2) 2/WK FOR 30 WK (STUDY DURATION: LIFETIME)
  carcinogen call: inactive; negative
Species: RAT, Strain/Sex: F344/MALE, Route: GAVAGE, Dose: 0, 16 MG/ML IN 0.2 ML ETHYL ACETATE AND CORN OIL 2/WK FOR 30 WK (STUDY DURATION: LIFESPAN), Tumor Site: Type of Lesion: LUNG: TUMOR, GLANDULAR STOMACH: TUMOR, SKIN: TUMOR, Tumor Site: Type of Lesion: LUNG: TUMOR, GLANDULAR STOMACH: TUMOR, SKIN: TUMOR
  carcinogen call: active; positive

## CCN=[N+](C)[O-]
Species: RAT, Strain/Sex: F344/MALE, Route: ORAL, Dose: 0, 12, 48 MG/ML IN A NEUTRAL DEIONIZED DRINKING WATER SOLUTION 5 D/WK FOR 30 WK (TOTAL DOSE 36; 144 MG) (STUDY DURATION:, Dose: 0, 12, 48 MG/ML IN A NEUTRAL DEIONIZED DRINKING WATER SOLUTION 5 D/WK FOR 30 WK (TOTAL DOSE 36; 144 MG) (STUDY DURATION:, Tumor Site: Type of Lesion: LIVER: CARCINOMA, HEMANGIOSARCOMA, KIDNEY: TUMOR
  carcinogen call: active; positive

## C
Species: MOUSE, Strain/Sex: NMRI/FEMALE, Route: INHALATION, Dose: 0, 7.4 MG/M3 18 HR/D 5 D/WK FOR 4 MO INCREASED TO 12.2 MG/M3 FOR 9.5 MO FOLLOWED BY CLEAN AIR FOR 9.5 MO (STUDY DURATION
  carcinogen call: inactive; negative
Species: RAT, Strain/Sex: F344/FEMALE, Route: INHALATION, Dose: 0, 2.5, 6.5 MG/M3 IN AIR 16 HR/D 5 D/WK FOR 24 MO (STUDY DURATION: 25.5 MO), Dose: 0, 2.5, 6.5 MG/M3 IN AIR 16 HR/D 5 D/WK FOR 24 MO (STUDY DURATION: 25.5 MO), Tumor Site: Type of Lesion: LUNG: BENIGN OR MALIGNANT NEOPLASM
  carcinogen call: active; positive
Species: RAT, Strain/Sex: F344/FEMALE, Route: INHALATION, Dose: 0, 2.5, 6.5 MG/M3 OF AIR 16 HR/D 5 D/WK FOR UP TO 24 MO (STUDY DURATION: LIFE SPAN), Dose: 0, 2.5, 6.5 MG/M3 OF AIR 16 HR/D 5 D/WK FOR UP TO 24 MO (STUDY DURATION: LIFE SPAN), Tumor Site: Type of Lesion: LUNG: MALIGNANT TUMOR
  carcinogen call: active; positive
Species: RAT, Strain/Sex: F344/MALE, Route: INHALATION, Dose: 0, 2.5, 6.5 MG/M3 IN AIR 16 HR/D 5 D/WK FOR 24 MO (STUDY DURATION: 25.5 MO), Dose: 0, 2.5, 6.5 MG/M3 IN AIR 16 HR/D 5 D/WK FOR 24 MO (STUDY DURATION: 25.5 MO)
  carcinogen call: inactive; negative
Species: RAT, Strain/Sex: F344/MALE, Route: INHALATION, Dose: 0, 2.5, 6.5 MG/M3 OF AIR 16 HR/D 5 D/WK FOR UP TO 24 MO (STUDY DURATION: LIFE SPAN), Dose: 0, 2.5, 6.5 MG/M3 OF AIR 16 HR/D 5 D/WK FOR UP TO 24 MO (STUDY DURATION: LIFE SPAN), Tumor Site: Type of Lesion: LUNG: MALIGNANT TUMOR
  carcinogen call: active; positive
Species: RAT, Strain/Sex: WISTAR/FEMALE, Route: INHALATION, Dose: 0, 7.4 MG/M3 18 HR/D 5 D/WK FOR 4 MO INCREASED TO 12.2 MG/M3 FOR 20 MO FOLLOWED BY CLEAN AIR FOR 6 MO (STUDY DURATION: 3, Tumor Site: Type of Lesion: LUNG: TUMOR
  carcinogen call: active; positive

## CC(=O)CC(C)C
Species: Mouse, Strain/Sex: B6C3F1/N/Female, Route: Inhalation, Dose: 0, 450, 900, 1800 ppm 6 hr and 12 min/day, 5 d/wk for 105 wks, Dose: 0, 450, 900, 1800 ppm 6 hr and 12 min/day, 5 d/wk for 105 wks, Tumor Site: Type of Lesion: Liver: Hepatocellular adenoma (13/50, 15/50, 20/50, 23/50), Hepatocellular carcinoma (6/50, 5/50, 6/50, 11/50), Hepatoce, Tumor Site: Type of Lesion: Liver: Hepatocellular adenoma (13/50, 15/50, 20/50, 23/50), Hepatocellular carcinoma (6/50, 5/50, 6/50, 11/50), Hepatoce
  carcinogen call: equivocal
Species: Mouse, Strain/Sex: B6C3F1/N/Male, Route: Inhalation, Dose: 0, 450, 900, 1800 ppm 6 hr and 12 min/day, 5 d/wk for 105 wks, Dose: 0, 450, 900, 1800 ppm 6 hr and 12 min/day, 5 d/wk for 105 wks, Tumor Site: Type of Lesion: Liver: Hepatocellular adenoma (17/50, 25/50, 23/50, 34/50), Hepatocellular carcinoma (12/50, 12/50, 10/50, 9/50), Hepato, Tumor Site: Type of Lesion: Liver: Hepatocellular adenoma (17/50, 25/50, 23/50, 34/50), Hepatocellular carcinoma (12/50, 12/50, 10/50, 9/50), Hepato
  carcinogen call: active; positive (ntp describes as some evidence)
Species: Rat, Strain/Sex: F344/N/Female, Route: Inhalation, Dose: 0, 450, 900, 1800 ppm 6 hr and 12 min/d, 5 d/wk for 104 wks, Dose: 0, 450, 900, 1800 ppm 6 hr and 12 min/d, 5 d/wk for 104 wks, Tumor Site: Type of Lesion: Mesenchymal tumor malignant: (0/50, 0/50, 0/50, 2/50)
  carcinogen call: equivocal
Species: Rat, Strain/Sex: F344/N/Male, Route: Inhalation, Dose: 0, 450, 900, 1800 ppm 6 hr and 12 min/d, 5 d/wk for 104 wks, Dose: 0, 450, 900, 1800 ppm 6 hr and 12 min/d, 5 d/wk for 104 wks, Tumor Site: Type of Lesion: Kidney: Renal tubule adenoma (2/50, 3/50, 3/50, 10/50), Renal tubule carcinoma (0/50, 1/50, 0/50, 2/50), Renal tubule ad, Tumor Site: Type of Lesion: Kidney: Renal tubule adenoma (2/50, 3/50, 3/50, 10/50), Renal tubule carcinoma (0/50, 1/50, 0/50, 2/50), Renal tubule ad
  carcinogen call: active; positive (ntp describes as some evidence)

## Nc1ccc2ccccc2c1
Species: DOG, Route: ORAL, Tumor Site: Type of Lesion: URINARY BLADDER
  carcinogen call: active; positive
Species: DOG, Strain/Sex: BEAGLE/FEMALE, Route: ORAL, Dose: 21.3 MG/KG 5/WK, Tumor Site: Type of Lesion: URINARY BLADDER: TRANSITIONAL CELL CARCINOMA
  carcinogen call: active; positive
Species: DOG, Strain/Sex: BEAGLE/MALE, Route: ORAL, Dose: 18.4 MG/KG 5/WK, Tumor Site: Type of Lesion: URINARY BLADDER: TRANSITIONAL CELL CARCINOMA
  carcinogen call: active; positive
Species: HAMSTER, Route: ORAL, Tumor Site: Type of Lesion: URINARY BLADDER
  carcinogen call: active; positive
Species: HUMAN, Route: ORAL, INHALATION, DERMAL, Tumor Site: Type of Lesion: URINARY BLADDER
  carcinogen call: active; positive
Species: MONKEY, Route: ORAL, Tumor Site: Type of Lesion: URINARY BLADDER
  carcinogen call: active; positive
Species: MOUSE, Route: ORAL, Tumor Site: Type of Lesion: LIVER
  carcinogen call: active; positive
